Patent EP0564466B1, “LHRH-ANTAGONISTS” (ASTA Medica Aktiengesellschaft, priority 1990, dated 1992)
Non-standard residues stand in square brackets, D forms with d. Residues, ends and D or L forms follow the SMILES beside them. dPhe(4-Cl) = N[C@H](Cc1ccc(Cl)cc1)C(=O)O; d2Nal = N[C@H](Cc1ccc2ccccc2c1)C(=O)O; d3Pal = N[C@H](Cc1cccnc1)C(=O)O

Legend:
rat mast cell [1] = assay: Histamine releasing test (HRT) in vitro; format: cell-based, SD rats; conditions: in vitro histamine release from rat peritoneal mast cells, 15 min at 37 °C
Method: The healthy, adult, male SD rats (BW 200-250 g) housing in the above same conditions are used in this experiment. After anesthetized by CO2 the peritoneal cavity is washed with 50 ml of PIPES AC medium containing 20 units of heparin. Following centrifugation at 200xg for 8 min at 4 °C, cells are washed again and finally resuspended to a concentration of 8 to 24x10^5 total leucocyted/ml in PIPAS AC. This suspension contains approximately 5-10 % mast cells. Washed cells are used immediately after collection and are prewarmed for 5 min at 37 °C prior to pipetting 0,3 ml aliquots into polystyrene tubes containing 0,3 ml of diluted peptide. The mixtures are incubated for 15 min at 37 °C and the reaction stopped by centrifugation at 400 xg for 15 min at 4 °C. The supernatans are assayed for histamine content by manual fluorometric assay method after successively extraction with n-butanol and n-heptane. The histamine content can be obtained from the histamine standard curve (see below). The percentage of histamine release can be calculted from the following equation: Histamine release(%)=(E-B)/(C-B)X 100 % [formula] where E is the fluorometric reading of experimental sample, B is the fluorometric reading of samples with cells and buffer only, and C ist the fluorometric reading of "complete" (cells treated with HCIO4).
The standard curve can be obtained by plotting the OD values on a fluorometer at 350 nm/450 nm (activation/fluorescent) against the concentrations of serially diluted solution of accurately weighted histamine hydrochloride. The relative parameter r of the histamine standard curve can be 0.9998, and the lowest detectable concentration of histamine is 0,5 ng/ml.
The ED50 value of peptide can be gotten from the dose response curves obtained by plotting the histamine release versus the peptide concentration on semilogarithmic paper.
All peptide samples should be tested with mast cells from a minimum of 3 different rats.

rat ovulation = assay: Corbin's rat antiovulation method (antiovulatory activity, AOA); format: in vivo, SD rats; conditions: for % AOA/µg 0.25: 0.25 µg; for % AOA/µg 0.25 / % AOA/µg 0.5 / % AOA/µg 1.0: in saline, given at noon of proestrus, female SD rats; for % AOA/µg 0.5: 0.5 µg; for % AOA/µg 1.0: 1.0 µg
Method: Corbin's rat antiovulatlon method is used. The healthy, adult, female SD rats (BW 200-250 g) are used in this experiment. All animals are maintained at 22-24 °C and on 14 h/10 h (light/dark) schedule. They are given standard food, and water ad libitum. The rats showing at least two consecutive 4-day estrous cycles in vaginal smear examination can be used in this experiment. […] The rats are sacrificed next day, their oviduct of two sides are examed under a dissecting microscope to determine the ovum number. The rats were divided into several groups according to the dosing, each group consists of about 10 rats, and the control group in which the rats are given equal amount of saline consists of 9-10 rats. The antiovulatory activity (AOA) is shown in the following equation: AOA=(number of unovulated rats)/(Total number of treated rats)X 100 % [formula]

rat mast cell [2] = conditions: neuropeptide substance P; cited from earlier work

With CC(=O)N[C@H](Cc1ccc2ccccc2c1)C(=O)N[C@H](Cc1ccc(Cl)cc1)C(=O)N[C@H](Cc1cccnc1)C(=O)N[C@@H](CO)C(=O)N[C@@H](CCCNC(=N)N)C(=O)N[C@H](Cc1cccnc1)C(=O)N[C@@H](CC(C)C)C(=O)N[C@@H](CCCNC(=N)N)C(=O)N1CCC[C@H]1C(=O)N[C@H](C)C(N)=O [compound 1, [NAc-D2Nal^1, DpClphe^2, D3Pal^3, Ser^4, Arg^5, D3Pal^6, Leu^7, Arg^8, Pro^9, DAla^10]NH2] (Ac-[d2Nal][dPhe(4-Cl)][d3Pal]SR[d3Pal]LRP[dA]-NH2) the “HRA (µg/ml) ED50 ± SEM” value (rat mast cell [1]) was 3.5 ± 0.38 µg/mL, the “HRA (µg/ml) ED50 ± SEM” value (rat mast cell [1]; listed as IV) was 3,5 µg/ml and the AOA (rat ovulation; 0,5 µg, corn oil) was 100%. For the same compound, the AOA (rat ovulation; 0,12 µg, corn oil) was 60%, the AOA (rat ovulation; 0,25 µg, corn oil) was 85% and the “% AOA/µg 0.25” value (rat ovulation) was 50%. The “% AOA/µg 0.5” value (rat ovulation) was 75%, the “% AOA/µg 1.0” value (rat ovulation) was 100% and the “ED50 for AOA” value (rat ovulation; corn oil) was ≤ 0,125 µg.
With CC(=O)N[C@H](Cc1ccc2ccccc2c1)C(=O)N[C@H](Cc1ccc(Cl)cc1)C(=O)N[C@H](Cc1ccccc1)C(=O)N[C@@H](CO)C(=O)N[C@@H](CCCNC(=N)N)C(=O)N[C@H](Cc1cccnc1)C(=O)N[C@@H](CC(C)C)C(=O)N[C@@H](CCCNC(=N)N)C(=O)N1CCC[C@H]1C(=O)N[C@H](C)C(N)=O [compound 2, [NAc-D2Nal^1, DpClPhe^2, DPhe^3, Ser^4, Arg^5, D3Pal^6, Leu^7, Arg^8, Pro^9, DAla^10]NH2] (Ac-[d2Nal][dPhe(4-Cl)][dF]SR[d3Pal]LRP[dA]-NH2) the “HRA (µg/ml) ED50 ± SEM” value (rat mast cell [1]) was 7.4 ± 0.98 µg/mL, the “% AOA/µg 0.25” value (rat ovulation) was 29% and the “% AOA/µg 0.5” value (rat ovulation) was 60%. The “% AOA/µg 1.0” value (rat ovulation) was 100%.
For “[Arg^1, Pro^2, Lys^3, Pro^4, Gln^5, Gln^6 Phe^7, Phe^8, Gly^9, Leu^10, Met^11]NH2 [substance P]”, the “ED50 for HRA” value (rat mast cell [2]) is given as 5 to 15 µM.
With “[NAc-D2Nal^1, DpClPhe^2, D3Pal^3 Ser4, Tyr5, D3Pal6, Leu7, Arg8, Pro9, DAla10]NH2 [III]” the “HRA (µg/ml) ED50 ± SEM” value (rat mast cell [1]) was 9.8 µg/mL, the AOA (rat ovulation; 1 µg, corn oil) was 83% and the AOA (rat ovulation; 3 µg, corn oil) was 100%.
Work on “[NAc-D2Nal^1, DpClPhe^2, D3Pal^3, Ser^4, Tyr^5, DArg^6, Leu^7, Arg^8, Pro^9, DAla^10]NH2 [II, reference compound]” yielded an AOA (rat ovulation; 0,5 µg, corn oil) of 100% and an AOA (rat ovulation; 0,25 µg, corn oil) of 57%.
For “[NAc-D2Nal^1, DpClPhe^2, DPhe^3, Ser^4, Tyr^5, D3Pal^6, Leu^7, Arg^8, Pro^9, DAla^10]NH2 [V']”, the “HRA (µg/ml) ED50 ± SEM” value (rat mast cell [1]) was 7,4 µg/ml and the “% AOA/µg 1.0” value (rat ovulation) was 100%.
With “[NAc-D2Nal^1, DpClphe^2, D3Pal^3, Ser^4, Mop^5, D3Pal^6, Leu^7, Arg^8, Pro^9, DAla^10]-NH2 [compound 13]” the “HRA (µg/ml) ED50 ± SEM” value (rat mast cell [1]) was 14.7 ± 2.70 µg/mL, the “HRA (µg/ml) ED50 ± SEM” value (rat mast cell [1]; listed as VII) was 14,7 µg/ml and the “% AOA/µg 0.5” value (rat ovulation) was 25%. For the same compound, the “% AOA/µg 1.0” value (rat ovulation) was 100%.
